What was measured:
[1] = Monitoring of xenograph mice for signs of toxicity; type: in vivo; conditions: 10 mg/kg/day (MTD for t-RA)
OVCAR-3 = experiment: Growth inhibition assay (SRB); type: cell-based, human; conditions: 10 μM, three-day treatment, Table I
How it was run: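 Cells plated at 2000-4000/well, then treated next day with compound at final 1, 2, 3, 4, 5, 7 and 10 μM for 3 days. Density by TCA fixation and sulforhodamine B staining with OD read-out, in triplicate. Percent growth inhibition = (1 − treated OD/DMSO-control OD) × 100.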

[2] = Liver toxicity (plasma ALT activity, liver sections); type: in vivo; conditions: 10 mg/kg/day p.o.; for liver toxicity (ALT activities, liver sections assessed by pathologist): mice
From the text: Toxic compounds can induce livers to release enzymes called serum transaminases, such as alanine aminotransferase (ALT). The assay for ALT is the most universally accepted clinical laboratory marker used to evaluate hepatic toxicity induced by pharmaceuticals [See “Serum Transferase Elevations as Indicators or Hepatic Injury Following the Administration of Drugs”, Reg. Tox. Pharm., volume 27, 1998, pp 119-130, by D. E. Amacher]. At the end of the treatment period, blood was drawn from each animal. Plasma was separated by centrifugation and stored at −70° C. The activity of ALT was determined in aliquots of plasma by standard spectrophotometric enzymatic techniques which were based upon the reduction of pyruvate by lactate dehydrogenase [See “Aged Mice are Resistant to the Hepatotoxic Effects of Endotoxin and Galactosamine” in Exp. Mol. Pathology, volume 59, 1993, pp 27-37]. The method measures the disappearance of NADH from time of incubation at 37° C. The activities have been expressed in μm/Liter/min (Table VI). Two different amounts of plasma were utilized in each assay to assure the measurement of the maximum rate.
There were no statistically significant differences between the ALT activities in the different treatment groups (Table VI, t-test: P>0.05). All numbers were in the normal range (63 to 307 μm/Liter/Min) of ALT values for the species of mouse utilized. All liver sections were assessed by an experienced pathologist in a blinded manner. The degree of necrosis was very mild in all animals.

[3] = test system: ovarian carcinoma cell line OVCAR-3; experiment: Apoptosis in organotypic culture, TUNNEL assay; type: cell-based, human; conditions: 1 μM; for % APOPTOSIS of OVCAR-3 cells: two weeks, organotypic culture, TUNNEL assay; for inducing apoptosis in the OVCAR-3 cell line, comparison in words: Table V
Method: In another experiment, the ovarian carcinoma cell line OVCAR-3 was grown in organotypic culture. After one week, the cultures were treated with 1 μM solution of heteroarotinoids 11, 12, and 13, or with the same volume of DMSO (solvent), for two weeks. Both 9-c-RA and 4-HPR were used as controls. At the end of the time, the cultures were fixed in sectioned, and stained with the TUNNEL assay to detect apoptosing cells. An experienced pathologist quantitated the percent of apoptosing cells by light microscopic examination.

OVCAR-3 cells = experiment: In vivo tumor xenograph; design: species or system athymic nu/nu mice; conditions: 10 mg/kg/day p.o.; for tumor growth (average tumor volume, FIG. 1): 5 days/week, beginning 35 days after implantation; for sizes of the tumors compared with control group treated with sesame oil alone: after 15 days of treatment, t-test P<0.05
Method: Thirty female athymic nu/nu mice (Charles Rivers Laboratories, Wilmington, Mass.) were housed in a laminar flow room under sterile conditions at 83-85° F. The mice were quarantined for one week prior to the beginning of the study and were allowed access to autoclaved food (Purina 5001 mouse/rat sterilized diet, St. Louis, Mo.) and water ad libitum. Then OVCAR-3 cells in log phase growth were harvested by trypsinization, resuspended in RPMI culture medium, and centrifuged at 3000 rpm for 10 min. The pellets were then resuspended in RPMI culture medium at a concentration of 7×10^6 cells/mL before implantation into mice. Animals were injected with 3.5×10^6 cells into right scapular region with a 24-gauge needle/1 mL tuberculin syringe (Becton Dickinson, Rutherford, N.J.). Twenty four hours after tumor implantation, animals were randomized into four treatment groups of 5 animals each. Retinoids were administered daily p.o. beginning 35 days after tumor implantation with a 20-gauge intragastric feeding tube (Popper & Sons, New Hyde Park, N.Y.), 5 days/week, at doses of 10 mg/kg/day in 0.1 mL of super refined sesame oil (Corda, Inc., Parisppany, N.J.). Tumors were measured with calipers weekly, and tumor volumes were calculated using the formula: volume=length×width×heigth. Animal weights and clinical signs of overall health status and cutaneous toxicities were recorded weekly. Agents 11 and 13 were evaluated against the 4-HPR standard. FIG. 1 illustrates the overall changes in tumor volumes found in the mice in these experiments. […] The animals were monitored daily for signs of toxicity, such as skin eczema and bone fractures, but none were observed. This is added evidence that these heteroarotinoids are strong candidates for cancer chemotherapy.

Compound | toxicity to the skin, bones, or liver [1] | Percentage growth inhibition, OVCAR-3 (Ovarian HPV− Mut p53) (OVCAR-3) [%] | liver toxicity (ALT activities, liver sections assessed by pathologist) [2] | ALT ACTIVITY ([2]; plasma of mice at end of treatment period) [μm/Liter/Min] | % APOPTOSIS of OVCAR-3 cells [3] [%] | inducing apoptosis in the OVCAR-3 cell line, comparison in words [3] | tumor growth (average tumor volume, FIG. 1) (OVCAR-3 cells) | sizes of the tumors compared with control group treated with sesame oil alone (OVCAR-3 cells)
CC1(C)CC(C)(C)c2cc(NC(=S)Nc3ccc([N+](=O)[O-])cc3)ccc2S1 [heteroarotinoid 11] | did not cause toxicity | 94 | do not appear to induce significant liver toxicity | 118.5 ± 153.4 | 95 | as effective as 4-HPR | inhibited tumor growth | significantly smaller
CCOC(=O)c1ccc(NC(=O)Nc2ccc3c(c2)C(C)(C)CC(C)(C)S3)cc1 [heteroarotinoid 13] | did not cause toxicity | 77 | do not appear to induce significant liver toxicity | – | 80 | as effective as 4-HPR | inhibited tumor growth | significantly smaller
